Test results from BindingDB's records for doi:10.1016/j.bmcl.2009.07.009 (Konkuk University, 2009).

Columns and labels:
[1] = target: T1, Replicase polyprotein 1ab (Severe acute respiratory syndrome coronavirus, UniProt P0C6X7); assay: Inhibition of ATPase activity of SARS coronavirus helicase assessed as phosphate release by malachite green assay
[2] = target: T1, Replicase polyprotein 1ab; assay: Inhibition of SARS coronavirus helicase assessed as duplex-DNA unwinding by FRET based assay

Structure (SMILES) | IC50 [1] [µM] | IC50 [2] [µM]
O=c1c(O)ccc2oc(CNCc3cccc(Cl)c3)cc(O)c1-2 [2-[(3-Chloro-benzylamino)-methyl]-5,6-dihydroxy-chromen-4-one] | > 50 | > 50
O=c1c(O)ccc2oc(CNCc3ccc(Cl)cc3)cc(O)c1-2 [2-[(4-Chloro-benzylamino)-methyl]-5,6-dihydroxy-chromen-4-one] | > 50 | > 50
N#Cc1cccc(CNCc2cc(O)c3c(=O)c(O)ccc-3o2)c1 [3-{[(5,6-Dihydroxy-4-oxo-4H-chromen-2-ylmethyl)-amino]-methyl}-benzonitrile] | > 50 | > 50
